In the data set the test system is Yap1 mRNA. As to the kind of experiment: Antisense inhibition of human Yap1 in A-431 cells by cEt gapmers, single dose (Example 2, RTS4814). The data set is classed as cell-based. In a few lines:
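Single-dose knockdown screen of 3-10-3 cEt phosphorothioate gapmers at 2,000 nM added by free uptake to A-431 cells. After roughly 48 h, RNA was isolated and Yap1 transcript measured by RT-qPCR, with results given as % UTC.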

[1] abbreviates: Yap1 mRNA as percent of untreated control, A-431 cells, 3-10-3 cEt gapmers targeting SEQ ID NO.: 1, and 2, Table 31.
The mark [2] stands for this setting: Table 25, Yap1 mRNA as percent of untreated control, 3-10-3 cEt gapmers targeting SEQ ID NO.: 1, and 2.
[3] abbreviates: Table 24, Yap1 mRNA as percent of untreated control, 3-10-3 cEt gapmers targeting SEQ ID NO.: 1, and 2.
Where [4] appears, read: Table 6, A-431 cells, 5,000 cells per well, free uptake, 2,000 nM modified oligonucleotide, approx. 48 hours, RTS4814, normalized to RIBOGREEN, Yap1 mRNA relative to untreated control cells.
The mark [5] stands for this setting: Table 22, Yap1 mRNA as percent of untreated control, 3-10-3 cEt gapmers, single dose.
[6] abbreviates: Table 33, Yap1 mRNA, percent of untreated control, 3-10-3 cEt gapmers targeting SEQ ID NO.: 1, and 2.
[7] abbreviates: A-431 cells, 5,000 cells per well, free uptake, 2,000 nM modified oligonucleotide, approx. 48 hours, RTS4814, normalized to RIBOGREEN, Table 4, asterisk (*) = targets amplicon region of primer probe set.
Where [8] appears, read: Table 32, Yap1 mRNA, percent of untreated control, 3-10-3 cEt gapmers targeting SEQ ID NO.: 1, and 2.
Where [9] appears, read: Table 23, Yap1 mRNA as percent of untreated control, 3-10-3 cEt gapmers, single dose.
Where [10] appears, read: Table 19, A-431 cells, 5,000 cells per well, free uptake, 2,000 nM modified oligonucleotide, approx. 48 hours, RTS4814, normalized to RIBOGREEN, Yap1 mRNA as percent of untreated control.
Setting [11] is: Table 5, A-431 cells, 5,000 cells per well, free uptake, 2,000 nM modified oligonucleotide, approx. 48 hours, RTS4814, normalized to RIBOGREEN, Yap1 mRNA relative to untreated control cells.
Where [12] appears, read: Yap1 mRNA as percent of untreated control, A-431 cells, 3-10-3 cEt gapmers targeting SEQ ID NO.: 1, and 2, Table 30.
Where [13] appears, read: Table 21, Yap1 mRNA, percent of untreated control, 3-10-3 cEt gapmers targeting SEQ ID NO.: 1 and 2.

Strand notation (5' to 3'): a small letter for the sugar, then the base; units joined by * are phosphorothioate-linked, units joined directly phosphodiester-linked; [ ] holds rarer units or linkages, { } end groups; capitals alone tell only the bases. k = constrained ethyl (cEt); [5mC] = 5-methylcytosine; d = 2'-deoxy (DNA)

“1075825 (k[5mC]*k[5mC]*k[5mC]*d[5mC]*dT*dA*dA*dA*dG*dA*dA*dG*dA*kT*kT*kT; antisense) [compound 1075825]”: the “YAP1 (% UTC)” value under setting [1] is reported as 44 % UTC.

Take “1074161 (kG*kG*k[5mC]*dG*dA*dG*d[5mC]*dG*dA*dG*dG*dG*d[5mC]*kT*kA*k[5mC]; antisense) [compound 1074161]”: the “YAP1 (% UTC)” value under setting [1] was determined as 98 % UTC. For the substance “1074699 (antisense k[5mC]*kT*kA*dT*d[5mC]*dA*dA*dG*dG*dT*d[5mC]*d[5mC]*d[5mC]*k[5mC]*k[5mC]*kT) [Compound 1074699]”, the “YAP1 (% UTC)” value under setting [2] worked out at 27 % UTC. For the substance “1074186 (antisense kG*kG*kG*d[5mC]*d[5mC]*dG*dG*dT*dT*dG*dA*dG*dG*k[5mC]*kG*kG) [Compound 1074186]”, under setting [3], the “YAP1 (% UTC)” value was 74 % UTC.

“716435 (kA*k[5mC]*kA*dA*d[5mC]*dT*dG*dT*dT*dG*dA*dA*d[5mC]*kA*kA*kA; antisense) [Compound 716435]”: the “YAP1 (% UTC)” value under setting [4] was found to be 45 % UTC. With “1074507 (kA*kT*kA*dA*dT*d[5mC]*dG*dA*dG*dA*dT*dT*dT*kA*kA*kA; antisense) [Compound 1074507]”, the “YAP1 (% UTC)” value under setting [2] turned out to be 74 % UTC.

Regarding “1074218 (antisense kA*kG*kG*dG*d[5mC]*dT*d[5mC]*d[5mC]*dT*dG*d[5mC]*dA*dG*kT*kG*k[5mC]) [Compound 1074218]”, under setting [3], the “YAP1 (% UTC)” value was determined as 70 % UTC.

In the case of “1076264 (kA*k[5mC]*k[5mC]*d[5mC]*dA*dA*dT*dA*dA*d[5mC]*d[5mC]*dA*dA*kG*kT*kG; antisense) [Compound 1076264]”, the “YAP1 (% UTC)” value under setting [5] worked out at 40 % UTC.

As for “1075763 (kA*kT*kT*dT*dA*dG*dG*d[5mC]*dT*dT*dT*dG*dG*kG*kT*kT; antisense) [compound 1075763]”, the “YAP1 (% UTC)” value under setting [6] is given as 16 % UTC. As to “1074195 (antisense k[5mC]*k[5mC]*k[5mC]*dG*dG*dG*dT*d[5mC]*d[5mC]*dG*dG*dA*d[5mC]*kG*kG*k[5mC]) [compound 1074195]”, under setting [6], the “YAP1 (% UTC)” value is 79 % UTC.

Take “716448 (k[5mC]*k[5mC]*kG*dA*d[5mC]*dA*dA*dA*dA*d[5mC]*d[5mC]*dA*dA*k[5mC]*k[5mC]*kA; antisense) [Compound 716448]”: the “YAP1 (% UTC)” value under setting [7] is on record as 62 % UTC. Turning to “1074482 (kT*kA*kA*dT*dA*dT*dG*dG*dT*d[5mC]*dA*dT*dT*kT*kG*k[5mC]; antisense) [compound 1074482]”, the “YAP1 (% UTC)” value under setting [8] is on record as 12 % UTC.

For “1074121 (antisense kT*kG*k[5mC]*dG*dA*dG*dG*d[5mC]*dA*d[5mC]*dT*d[5mC]*dG*kG*kA*k[5mC]) [Compound 1074121]”, the “YAP1 (% UTC)” value under setting [9] is 87 % UTC. Consider “1075601 (antisense kA*k[5mC]*kA*d[5mC]*dT*dA*dT*dA*dA*dT*d[5mC]*dT*dG*kA*k[5mC]*k[5mC]) [compound 1075601]”, for which the “YAP1 (% UTC)” value under setting [1] is recorded as 50 % UTC. Take “1075305 (kA*kA*kA*d[5mC]*dG*dA*dA*dA*d[5mC]*dA*d[5mC]*dG*dG*kG*kT*kA; antisense) [Compound 1075305]”: under setting [9], the “YAP1 (% UTC)” value stood at 66 % UTC. As to “1075505 (kG*k[5mC]*kT*dA*dA*dA*dT*dT*dA*d[5mC]*dA*dG*dA*kG*kG*kT; antisense) [compound 1075505]”, the “YAP1 (% UTC)” value under setting [1] was determined as 18 % UTC. On to “716573 (kA*kG*kT*dT*dA*d[5mC]*dT*dA*d[5mC]*dT*dG*dT*dA*kA*kT*k[5mC]; antisense) [Compound 716573]”, for which the “YAP1 (% UTC)” value under setting [4] is given as 116 % UTC. For “1075941 (kA*kG*kT*d[5mC]*dA*dA*dT*dA*dG*d[5mC]*dA*dA*dT*k[5mC]*kA*k[5mC]; antisense) [Compound 1075941]”, the “YAP1 (% UTC)” value under setting [10] was found to be 11 % UTC. “1076305 (kT*kA*k[5mC]*dT*dA*dA*dT*dA*dA*dG*d[5mC]*d[5mC]*dT*k[5mC]*kA*k[5mC]; antisense) [compound 1076305]”: the “YAP1 (% UTC)” value under setting [1] stood at 37 % UTC. As to “1076179 (kA*kA*kT*dT*dA*dG*d[5mC]*d[5mC]*dA*dA*d[5mC]*d[5mC]*dA*k[5mC]*k[5mC]*kT; antisense) [compound 1076179]”, the “YAP1 (% UTC)” value under setting [6] is recorded as 38 % UTC. For “716575 (kA*kA*kA*dG*dA*dA*d[5mC]*dT*dT*dA*dG*dT*dT*k[5mC]*k[5mC]*k[5mC]; antisense) [Compound 716575]”, the “YAP1 (% UTC)” value under setting [11] was determined as 84 % UTC. Regarding “716417 (kT*kG*kT*dA*dA*dG*dA*dA*dA*dG*d[5mC]*dT*dT*kT*k[5mC]*kT; antisense) [Compound 716417]”, the “YAP1 (% UTC)” value under setting [4] amounted to 78 % UTC. On to “1074761 (kT*kA*k[5mC]*d[5mC]*d[5mC]*dA*dA*dT*dA*d[5mC]*dA*dA*d[5mC]*k[5mC]*kA*kA; antisense) [Compound 1074761]”, for which the “YAP1 (% UTC)” value under setting [9] was 15 % UTC. With “1076368 (antisense k[5mC]*kA*kT*dT*dT*dT*dA*dT*dG*dT*dA*dA*dG*kG*k[5mC]*k[5mC]) [compound 1076368]”, the “YAP1 (% UTC)” value under setting [12] stood at 15 % UTC. As to “716380 (kT*kT*kA*dA*dG*dA*dA*dG*dT*dA*dT*d[5mC]*dT*k[5mC]*kT*kG; antisense) [Compound 716380]”, the “YAP1 (% UTC)” value under setting [11] came out at 54 % UTC. “1076487 (antisense kG*kT*kA*d[5mC]*dG*dA*dA*dA*d[5mC]*dG*dA*dA*dA*k[5mC]*kG*kG) [Compound 1076487]”: the “YAP1 (% UTC)” value under setting [13] is given as 21 % UTC. In the case of “1075339 (kA*k[5mC]*k[5mC]*d[5mC]*dA*dA*dA*dA*dA*d[5mC]*dT*dA*dG*k[5mC]*kT*kT; antisense) [Compound 1075339]”, the “YAP1 (% UTC)” value under setting [2] amounted to 70 % UTC. “1074386 (k[5mC]*kA*kG*dG*dA*dA*dT*dG*dG*d[5mC]*dT*dT*d[5mC]*kA*kA*kG; antisense) [compound 1074386]”: under setting [8], the “YAP1 (% UTC)” value turned out to be 39 % UTC. In the case of “1074952 (antisense kG*kT*kT*dT*dT*dT*dG*dT*d[5mC]*dA*dT*d[5mC]*dA*kG*kG*kT) [Compound 1074952]”, the “YAP1 (% UTC)” value under setting [5] was 42 % UTC. For “1075123 (k[5mC]*kT*kT*dT*dA*dG*dG*dA*dA*dA*dG*dG*dG*kT*kA*kT; antisense) [compound 1075123]”, the “YAP1 (% UTC)” value under setting [6] worked out at 21 % UTC. Take “1074599 (antisense kG*k[5mC]*kT*dA*dA*d[5mC]*dT*d[5mC]*dA*dA*dA*dA*d[5mC]*k[5mC]*kT*kT) [Compound 1074599]”: the “YAP1 (% UTC)” value under setting [13] is 12 % UTC. As to “1075209 (antisense k[5mC]*kA*kT*d[5mC]*dA*dA*d[5mC]*dA*dA*dT*dG*dG*dT*k[5mC]*kT*kA) [Compound 1075209]”, the “YAP1 (% UTC)” value under setting [9] was determined as 11 % UTC. Regarding “1075045 (antisense kA*kA*kA*dT*dT*dA*dG*dA*d[5mC]*dT*d[5mC]*d[5mC]*d[5mC]*k[5mC]*k[5mC]*kA) [Compound 1075045]”, the “YAP1 (% UTC)” value under setting [10] is reported as 18 % UTC. As for “1074835 (k[5mC]*kT*kT*dG*d[5mC]*dG*dA*dG*dG*dA*dT*dA*dA*kA*kA*kT; antisense) [compound 1074835]”, under setting [6], the “YAP1 (% UTC)” value was 30 % UTC. Turning to “1074633 (antisense kG*kA*kG*dG*d[5mC]*dT*dT*dT*dT*d[5mC]*dA*dT*dA*kG*k[5mC]*kA) [Compound 1074633]”, under setting [9], the “YAP1 (% UTC)” value stood at 78 % UTC. With “1075367 (k[5mC]*kA*kT*dT*dA*d[5mC]*dT*dT*dA*dG*dG*dG*d[5mC]*kT*kT*kA; antisense) [Compound 1075367]”, under setting [13], the “YAP1 (% UTC)” value came out at 12 % UTC. Take “1074697 (antisense kA*kT*k[5mC]*dA*dA*dG*dG*dT*d[5mC]*d[5mC]*d[5mC]*d[5mC]*d[5mC]*kT*kA*kA) [Compound 1074697]”: the “YAP1 (% UTC)” value under setting [9] came out at 44 % UTC. “716468 (kT*k[5mC]*kA*dT*d[5mC]*dA*dG*dA*dT*dA*dA*dT*dA*kT*k[5mC]*kT; antisense) [Compound 716468]”: under setting [4], the “YAP1 (% UTC)” value is 118 % UTC. As for “716521 (antisense k[5mC]*kA*kG*d[5mC]*dA*d[5mC]*dG*dG*dT*dG*dT*dA*dA*kG*kA*k[5mC]) [Compound 716521]”, the “YAP1 (% UTC)” value under setting [11] came out at 79 % UTC. For the substance “1076016 (kT*kA*kA*dT*dA*dG*dG*dA*dT*dG*dG*dA*dT*kT*k[5mC]*kT; antisense) [compound 1076016]”, the “YAP1 (% UTC)” value under setting [12] stood at 8 % UTC. As for “1076299 (k[5mC]*kG*kT*dT*dA*dT*dA*dA*dA*dG*dA*d[5mC]*d[5mC]*k[5mC]*kA*kA; antisense) [Compound 1076299]”, under setting [2], the “YAP1 (% UTC)” value came out at 3 % UTC.

“716382 (kA*kG*k[5mC]*dA*dT*dG*dG*d[5mC]*d[5mC]*dT*dT*d[5mC]*d[5mC]*kT*kG*kG; antisense) [Compound 716382]”: the “YAP1 (% UTC)” value under setting [7] turned out to be 73 % UTC.

(Values after patent US11214803B2, “Modulators of YAP1 expression” (Ionis Pharmaceuticals, Inc., priority 2019, dated 2022).)
